Like-named read-outs stand apart in the source and are kept apart here.
Tests used:
[1] = Acute toxicity, LD50 after i.p. administration; type: in vivo; settings: mouse, in vivo, ip, mice
Experimental: (§1) The toxicity of the 3-azidomethyl-2,9-dioxatricyclo[4,3,1,0^3,7 ] decanes of the formula (I) is extremely low. The LD50 in mice is in the range of between about 500 and about 700 mg/kg, when determined after i.p. administration of the compounds.

[2] = test system: phenyl benzoquinone syndrome in mice; assay: Phenyl benzoquinone syndrome (writhing test), analgesic activity; type: in vivo, mouse; settings: for ED50: Mus musculus, po, read-out: Analgesic activity, inhibition of PBC-syndrome, ED50
[3] = test system: rat's paw; assay: Randall-Selitto-Test, pressure pain threshold in the rat's paw (antiphlogistic/analgesic); type: in vivo; settings: for ED50: Rattus norvegicus, sc
[4] = test system: mice; assay: Acute toxicity, LD50 after i.p. administration; type: in vivo
Experimental: as §1

[5] = normal paw, read-out: Randall Selitto-test ED50, normal paw
[6] = oedema bearing paw, read-out: Randall Selitto-test ED50, oedema bearing paw

COC1OC2OC3(CN=[N+]=[N-])C(OC(C)=O)CC(C2C)C13 (stereo not drawn) [X, 3-azidomethyl-4β-acetoxy-8-methoxy-10β-methyl-2,9-DTD]
LD50 [1]: 739 mg/kg
Analgesic activity, inhibition of PBC-syndrome, ED50 ([2]; mouse, p.o.): ~ 10 mg/kg
ED50 [3, 5]: > 32 mg/kg
Randall Selitto-test ED50, oedema bearing paw ([3]; s.c., oedema bearing paw): > 32 mg/kg

COC1OC2OC3(CN=[N+]=[N-])C(=O)CC(C2C)C13 (stereo not drawn) [XVIII, 3-azidomethyl-8-methoxy-10β-methyl-2,9-DTD-4-one]
LD50 [1]: 632 mg/kg
ED50 ([2]; mouse, p.o.): < 56 mg/kg
ED50 [3, 5]: > 100 mg/kg
ED50 [3, 6]: > 100 mg/kg

COC1OC2OC3(CN=[N+]=[N-])C(O)CC(C2C)C13 (stereo not drawn) [XXII, 3-azidomethyl-4α-hydroxy-8-methoxy-10β-methyl-2,9-DTD]
LD50 [1]: 571 mg/kg
ED50 ([2]; mouse, p.o.): 18.5 mg/kg
ED50 [3, 5]: > 32 mg/kg
ED50 [3, 6]: > 32 mg/kg

CC(=O)Oc1ccccc1C(=O)O [Apsirin, reference compound]
ED50 [2]: 240 mg/kg
ED50 [3, 5]: > 700 mg/kg
ED50 [3, 6]: 440 mg/kg

C=C1C2OC(OC)C3C1CC(OC(C)=O)C3(CN=[N+]=[N-])O2 (stereo not drawn) [XXV, 3-azidomethyl-4α-acetoxy-8-methoxy-10-methylene-2,9-DTD]
ED50 ([2]; mouse, p.o.): ~56 mg/kg
ED50 [3, 5]: 100 mg/kg
ED50 [3, 6]: 100 mg/kg

COC1OC2OC3(CN=[N+]=[N-])C(OC(C)=O)CC(C2C)C13 (stereo not drawn) [XXVI, 3-azidomethyl-4α-acetoxy-8-methoxy-10β-methyl-2,9-DTD]
LD50 [4]: 574 mg/kg
Analgesic activity, inhibition of PBC-syndrome, ED50 ([2]; mouse, p.o.): < 3.2 mg/kg
Randall Selitto-test ED50, normal paw ([3]; s.c., normal paw): ~ 32 mg/kg
Randall Selitto-test ED50, oedema bearing paw ([3]; s.c., oedema bearing paw): 15 mg/kg

COc1ccc2c(c1)c(CC(=O)O)c(C)n2C(=O)c1ccc(Cl)cc1 [Indomethazine, reference compound]
ED50 [3, 5]: 250 mg/kg
ED50 [3, 6]: 64 mg/kg

COc1ccc2cc([C@H](C)C(=O)O)ccc2c1 [Naproxene, reference compound]
ED50 ([2]; mouse, p.o.): 30 mg/kg
ED50 [3, 5]: 250 mg/kg
ED50 [3, 6]: 147 mg/kg

CCCCC1C(=O)N(c2ccccc2)N(c2ccccc2)C1=O [Phenylbutazone, reference compound]
ED50 ([2]; mouse, p.o.): > 30 mg/kg
ED50 [3, 5]: > 100 mg/kg
ED50 [3, 6]: 58 mg/kg
